Experiments:
AXL = target: T1, AXL (Homo sapiens, UniProt P30530); experiment: TR-FRET kinase activity assay, AXL; assay type: biochemical; details: ATP at Km, 60 minutes
T1 sequence (P30530 26-894): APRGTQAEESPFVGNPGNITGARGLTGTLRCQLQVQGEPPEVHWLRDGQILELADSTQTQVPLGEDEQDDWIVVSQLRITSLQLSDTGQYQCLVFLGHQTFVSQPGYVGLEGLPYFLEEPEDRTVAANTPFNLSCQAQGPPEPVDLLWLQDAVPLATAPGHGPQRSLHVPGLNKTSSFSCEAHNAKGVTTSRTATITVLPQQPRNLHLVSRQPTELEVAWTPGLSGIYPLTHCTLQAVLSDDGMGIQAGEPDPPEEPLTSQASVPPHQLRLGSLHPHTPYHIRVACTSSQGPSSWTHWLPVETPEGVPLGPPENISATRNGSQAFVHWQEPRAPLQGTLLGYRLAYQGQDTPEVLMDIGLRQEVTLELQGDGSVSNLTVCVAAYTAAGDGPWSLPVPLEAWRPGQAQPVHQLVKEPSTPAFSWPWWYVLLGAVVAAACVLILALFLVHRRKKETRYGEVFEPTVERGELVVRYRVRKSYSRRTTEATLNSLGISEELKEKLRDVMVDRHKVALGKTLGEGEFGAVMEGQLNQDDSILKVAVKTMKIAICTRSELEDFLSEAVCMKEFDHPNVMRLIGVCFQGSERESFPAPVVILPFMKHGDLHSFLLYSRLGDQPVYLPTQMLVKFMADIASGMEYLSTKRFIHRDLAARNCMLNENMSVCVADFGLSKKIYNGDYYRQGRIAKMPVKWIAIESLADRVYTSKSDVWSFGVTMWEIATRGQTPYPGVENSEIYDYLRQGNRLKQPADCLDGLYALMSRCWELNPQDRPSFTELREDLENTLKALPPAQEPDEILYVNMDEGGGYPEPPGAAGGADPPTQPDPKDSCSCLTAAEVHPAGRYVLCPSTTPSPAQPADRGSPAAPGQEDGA
Method in brief: (§1)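 IC50s come from loss of TR-FRET between a Eu-labeled phospho-site antibody and fluorescent tyrosine-phosphorylated peptide. Kinase reactions, initiated with Km ATP, ran 60 min at RT at pH 7.5 before EDTA quench.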

MERTK = target: T2, MERTK (Homo sapiens, UniProt Q12866); experiment: TR-FRET kinase activity assay, MERTK; assay type: biochemical; details: for IC50: TR-FRET activity assay, ATP at Km, 60 minutes, read-out: Mer IC50; for Mer/Flt3 ratio (FLT3 IC50/Mer IC50): ratio calculated as FLT3 IC50/Mer IC50
T2 sequence (Q12866 21-999): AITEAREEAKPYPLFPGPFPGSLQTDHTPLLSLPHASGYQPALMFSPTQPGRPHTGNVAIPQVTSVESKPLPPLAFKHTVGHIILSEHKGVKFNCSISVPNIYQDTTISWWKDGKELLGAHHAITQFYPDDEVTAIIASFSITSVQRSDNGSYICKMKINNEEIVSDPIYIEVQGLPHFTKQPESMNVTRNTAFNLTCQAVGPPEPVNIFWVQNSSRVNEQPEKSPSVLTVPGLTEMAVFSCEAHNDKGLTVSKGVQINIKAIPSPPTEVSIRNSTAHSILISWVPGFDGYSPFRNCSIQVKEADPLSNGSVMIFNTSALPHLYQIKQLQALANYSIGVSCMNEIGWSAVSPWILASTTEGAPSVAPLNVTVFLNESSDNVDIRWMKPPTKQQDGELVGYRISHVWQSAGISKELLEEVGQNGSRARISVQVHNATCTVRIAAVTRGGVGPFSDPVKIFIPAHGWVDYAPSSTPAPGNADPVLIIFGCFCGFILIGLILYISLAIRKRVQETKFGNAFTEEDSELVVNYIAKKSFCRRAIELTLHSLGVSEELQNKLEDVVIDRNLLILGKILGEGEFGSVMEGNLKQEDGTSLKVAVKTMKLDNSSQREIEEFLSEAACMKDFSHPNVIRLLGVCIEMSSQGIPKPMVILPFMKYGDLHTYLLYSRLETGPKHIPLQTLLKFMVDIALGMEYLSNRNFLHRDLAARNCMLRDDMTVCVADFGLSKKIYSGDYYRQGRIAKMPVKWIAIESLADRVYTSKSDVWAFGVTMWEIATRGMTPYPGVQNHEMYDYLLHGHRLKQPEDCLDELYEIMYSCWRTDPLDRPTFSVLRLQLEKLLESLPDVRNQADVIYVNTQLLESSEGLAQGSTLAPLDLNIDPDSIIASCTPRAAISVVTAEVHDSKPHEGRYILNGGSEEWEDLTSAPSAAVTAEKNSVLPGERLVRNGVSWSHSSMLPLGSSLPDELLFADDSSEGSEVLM
Method in brief: as §1

| Compound | IC50 (AXL) | IC50 (MERTK) | Mer/Flt3 ratio (FLT3 IC50/Mer IC50) (MERTK) |
| --- | --- | --- | --- |
| C[C@@H](CC(F)(F)F)Nc1ncc2c(O[C@@H]3C[C@H]4CC[C@@H](C3)N4C[C@H]3CCCO3)ncc([C@H]3CC[C@H](O)CC3)c2n1 [Compound 412] | ≤ 100 nM | ≤ 100 nM | +++ (a ratio of >100) |
| C[C@@H](CC(F)(F)F)Nc1ncc2c(O[C@@H]3C[C@H]4CC[C@@H](C3)N4[C@H]3CCOC3)ncc([C@H]3CC[C@H](O)CC3)c2n1 [Compound 413] | ≤ 100 nM | ≤ 100 nM | +++ (a ratio of >100) |
| C[C@@H](CC(F)(F)F)Nc1ncc2c(O[C@@H]3C[C@H]4CC[C@@H](C3)N4C[C@H]3CCOC3)ncc([C@H]3CC[C@H](O)CC3)c2n1 [Compound 414] | ≤ 100 nM | ≤ 100 nM | +++ (a ratio of >100) |
| C[C@@H](CC(F)(F)F)Nc1ncc2c(O[C@@H]3C[C@H]4CC[C@@H](C3)N4[C@@H]3CCOC3)ncc([C@H]3CC[C@H](O)CC3)c2n1 [Compound 415] | ≤ 100 nM | ≤ 100 nM | +++ (a ratio of >100) |
| C[C@@H](CC(F)(F)F)Nc1ncc2c(O[C@@H]3C[C@H]4CC[C@@H](C3)N4C[C@@H]3CCOC3)ncc([C@H]3CC[C@H](O)CC3)c2n1 [Compound 416] | ≤ 100 nM | ≤ 100 nM | +++ (a ratio of >100) |
| C[C@@H](CC(F)(F)F)Nc1ncc2c(O[C@@H]3C[C@H]4CC[C@@H](C3)N4C[C@@H]3CCCO3)ncc([C@H]3CC[C@H](O)CC3)c2n1 [Compound 421] | ≤ 100 nM | ≤ 100 nM | +++ (a ratio of >100) |
| C[C@@H](CC(F)(F)F)Nc1ncc2c(O[C@H]3C[C@@H](O)C3)ncc([C@H]3CC[C@](C)(O)CC3)c2n1 [Compound 423] | ≤ 100 nM | ≤ 100 nM | +++ (a ratio of >100) |
| COC[C@H](C)Nc1ncc2c(O[C@H]3C[C@@H](O)C3)ncc(-c3ccnnc3)c2n1 [Compound 425] | 1000 to 10000 nM | 100 to 1000 nM | ++ (a ratio of between 10 and 100) |

Further lines, results first:

| IC50 (AXL) | IC50 (MERTK) | Mer/Flt3 ratio (FLT3 IC50/Mer IC50) (MERTK) | Compound |
| --- | --- | --- | --- |
| 1000 to 10000 nM | ≤ 100 nM | +++ (a ratio of >100) | O=C(O)[C@H]1CC[C@H](Nc2ncc3c(OC4CCOCC4)ncc([C@H]4CC[C@H](O)CC4)c3n2)CC1 [Compound 410] |
| 100 to 1000 nM | ≤ 100 nM | +++ (a ratio of >100) | C[C@H](Nc1ncc2c(O[C@H]3C[C@@H](O)C3)ncc([C@H]3CC[C@H](O)CC3)c2n1)C(F)F [Compound 411] |
| ≤ 100 nM | ≤ 100 nM | +++ (a ratio of >100) | CO[C@H]1C[C@@H]1Nc1ncc2c(O[C@H]3C[C@@H](O)C3)ncc([C@H]3CC[C@H](O)CC3)c2n1 [Compound 417] |
| ≤ 100 nM | ≤ 100 nM | +++ (a ratio of >100) | C[C@@H](CC(F)(F)F)Nc1ncc2c(OC3CC(C)(C)N(C[C@@H]4CCCO4)C(C)(C)C3)ncc([C@H]3CC[C@H](O)CC3)c2n1 [Compound 418] |
| 100 to 1000 nM | ≤ 100 nM | +++ (a ratio of >100) | COC[C@H](C)Nc1ncc2c(O[C@H]3C[C@H](C(=O)N4CCN(C)CC4)C3)ncc([C@H]3CC[C@H](O)CC3)c2n1 [Compound 419] |
| ≤ 100 nM | ≤ 100 nM | +++ (a ratio of >100) | C[C@@H](CC(F)(F)F)Nc1ncc2c(O[C@H]3C[C@H](CN4CCOCC4)C3)ncc([C@H]3CC[C@H](O)CC3)c2n1 [Compound 420] |
| ≤ 100 nM | ≤ 100 nM | +++ (a ratio of >100) | C[C@@H](CC(F)(F)F)Nc1ncc2c(O[C@H]3C[C@H](N4CCOCC4)C3)ncc([C@H]3CC[C@H](O)CC3)c2n1 [Compound 422] |
| ≤ 100 nM | ≤ 100 nM | +++ (a ratio of >100) | C[C@@H](CC(F)(F)F)Nc1ncc2c(O[C@H]3C[C@@H](O)C3)ncc([C@H]3CC[C@@](C)(O)CC3)c2n1 [Compound 424] |

Source: patent publication US20200291018A1, “TAM KINASE INHIBITORS” (SYROS PHARMACEUTICALS, INC., priority 2017, published 2020)
